The test system of assay [1] is HCT116. The assay is described as follows: efficacy (fitted maximal change in viability relative to DMSO control); higher = less cytotoxic (negative = loss of viability). The conditions noted are these: 48 h.
In assay [2] the test system is HCT116. The assay is described as follows: AC50 cell viability (CellTiter-Glo); higher = less potent. The conditions noted are these: 48 h. (In ATP-based viability assays light output follows the ATP content of the culture.)

For 49 compounds, efficacy and AC50 cell viability results are on record in the supplement of paper PMC10290057.

Structures can show the parent of a compound that is named as a salt.
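Wherever AC50 cell viability (CellTiter-Glo) is given: HCT116 colorectal carcinoma cells screened at five concentrations per compound, luminescent viability scaled between DMSO wells and empty wells on each plate, curves fitted per compound.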
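Wherever efficacy (fitted maximal change in viability relative to DMSO control) is given: Luminescence-based viability readout, five doses per compound, normalized against on-plate DMSO and empty-well controls, followed by dose-response curve fitting for every drug.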

Turning to `CNC1CCC(N(Cc2cccc(-c3ccncc3)c2)C(=O)c2sc3c(F)ccc(F)c3c2Cl)CC1` (stereo not drawn) [Hh-Ag1.5], the efficacy in assay [1] was -115%. Also, the AC50 cell viability in assay [2] stood at 13.2 µM.

On to `COc1cc(O)c2c(c1)C1OC1C[C@H](O)[C@H](O)C(=O)/C=C\C[C@H](C)OC2=O` (stereo partly drawn) [Hypothemycin], for which the efficacy in assay [1] was -72%. This compound also yielded an AC50 cell viability in assay [2] of 3.72 µM.

With `COc1cc2c(cc1-c1c(C)noc1C)ncc1[nH]c(=O)n([C@H](C)c3ccccn3)c12` [I-BET151], in assay [1], the efficacy was -77.4%. In assay [2], this compound showed an AC50 cell viability of 1.32 µM.

In the case of `CCNC(=O)C[C@@H]1\N=C(C2=CC=C(Cl)C=C2)/C3=C(C=CC(=C3)OC)[N]4C(=NN=C14)C` [I-BET762], the efficacy in assay [1] is -67%. This compound gave an AC50 cell viability in assay [2] of 2.63 µM.

For the compound `O=C1[C@H](Cc2ccc(O)cc2)N2C(=O)CCN(C(=O)NCc3ccccc3)[C@H]2CN1Cc1cccc2ccccc12` [ICG-001], the efficacy in assay [1] is -67.2%. Moreover, in assay [2], the AC50 cell viability turned out to be 2.09 µM.

`N#Cc1c(C2CCNCC2)cc(-c2c(O)cccc2OCC2CC2)nc1N` [IKK-2 Inhibitor VIII]: the efficacy in assay [1] was -89.2%. In addition, the AC50 cell viability in assay [2] stood at 10.5 µM.

Consider `O=C(c1ccc(Nc2nccc(-c3cc4ccccc4s3)n2)cc1)N1CCC(N2CCCC2)CC1` [IKK-16], for which the efficacy in assay [1] was -106%. In assay [2], this compound yielded an AC50 cell viability of 6.61 µM.

Turning to `O=C(Nc1cc(C(F)(F)F)cc(C(F)(F)F)c1)c1cc(Cl)ccc1O` [IMD-0354], in assay [1], the efficacy was -88.7%. In assay [2], this compound came in with an AC50 cell viability of 0.833 µM.

As for `CC(C)n1nc(-c2ccc3oc(N)nc3c2)c2c(N)ncnc21` [INK-128], the efficacy in assay [1] is -100%. Further, the AC50 cell viability in assay [2] was 0.372 µM.

Take `Nc1ccc(C(=O)c2cc3c(ccc4ccccc43)[nH]2)cc1` [IPFK2]: in assay [1], the efficacy was -102%. In assay [2], this compound displayed an AC50 cell viability of 4.81 µM.

Consider `CC(NC1=NC=NC2=C1[NH]C=N2)\C3=C\C4=C(C(=CC=C4)Cl)C(=O)N3C5=CC=CC=C5` (stereo not drawn) [IPI-145], for which the efficacy in assay [1] was -58.5%. Moreover, the AC50 cell viability in assay [2] was found to be 14.8 µM.

Consider `C[C@H](NC(=O)C1=C2N=CC=C[N]2N=C1N)\C3=C\C4=CC=CC(=C4C(=O)N3C5=CC=CC=C5)C#CC6=C[N](C)N=C6` [IPI-549], for which, in assay [1], the efficacy was -43.1%. For the same compound, the AC50 cell viability in assay [2] was 8.11 µM.

As to `O=C(Nc1nc2ccccc2n1CCN1CCOCC1)c1cccc([N+](=O)[O-])c1` [IRAK-1-4 Inhibitor I], in assay [1], the efficacy was -64.8%. The same compound displayed an AC50 cell viability in assay [2] of 14.8 µM.

With `CC(C)(C)OC(=O)Nc1ccc(-c2cc(C(=O)NCCCCCCC(=O)NO)no2)cc1` [ISOX], the efficacy in assay [1] was -91.5%. For the same compound, the AC50 cell viability in assay [2] was 1.86 µM.

Consider `CCOC(=O)\C1=C(/C)N\C2=C(C1C3=CC=C(C=C3)C4=CC=CC=C4)\C(=O)CC(C)(C)C2` (stereo not drawn) [ITD-1], for which, in assay [1], the efficacy was -67.8%. In assay [2], this compound had an AC50 cell viability of 18.6 µM.

Take `COc1cc(C)c(Sc2cnc(NC(=O)c3ccc(CNC(C)C(C)C)cc3)s2)cc1C(=O)N1CCN(C(C)=O)CC1` (stereo not drawn) [ITK Inhibitor]: in assay [1], the efficacy was -132%. Further, in assay [2], the AC50 cell viability came out at 14.8 µM.

On to `COc1ccc([S+](=O)([O-])N(C(C)=O)c2ccccc2/C=C/c2cc[n+]([O-])cc2)cc1` [IVX-214], for which the efficacy in assay [1] was -59.1%. Besides, the AC50 cell viability in assay [2] came out at 4.17 µM.

Take `CC(C)(NC(=O)O[C@@H]1CN2CCC1CC2)c1csc(-c2ccc(F)cc2)n1` [Ibiglustat]: the efficacy in assay [1] is -43.3%. The compound also registered an AC50 cell viability in assay [2] of 18.6 µM.

In the case of `CC(=O)[C@]1(O)Cc2c(O)c3c(c(O)c2[C@@H](O[C@H]2C[C@H](N)[C@H](O)[C@H](C)O2)C1)C(=O)c1ccccc1C3=O` [Idarubicin hydrochloride], the efficacy in assay [1] is -83%. The AC50 cell viability in assay [2] came to 0.661 µM.

As for `COc1cc(C(=O)O)ccc1NC(=O)[C@@H]1N[C@@H](CC(C)(C)C)[C@](C#N)(c2ccc(Cl)cc2F)[C@H]1c1cccc(Cl)c1F` [Idasanutlin], the efficacy in assay [1] was -67.9%. This compound also registered an AC50 cell viability in assay [2] of 1.66 µM.

Take `COC\1=C(/OC)C(=O)\C(=C(C)/C1=O)CCCCCCCCCCO` [Idebenone]: in assay [1], the efficacy is -54.9%. In addition, the AC50 cell viability in assay [2] is 18.6 µM.

Consider `OC[C@H]1O[C@H](C[C@@H]1O)N2\C=C(\I)C(=O)NC2=O` [Idoxuridine], for which the efficacy in assay [1] was -38.3%. This compound registered an AC50 cell viability in assay [2] of 16.6 µM.

As for `OC1=CC=C(C=C1)C/2=C/C3=C(OC2)C=C(O)C=C3` [Idronoxil], the efficacy in assay [1] is -73.9%. The AC50 cell viability in assay [2] was found to be 3.72 µM.

As for `Cc1ccc(NC(=O)c2ccc(CN3CCN(C)CC3)cc2)cc1Nc1nccc(-c2cccnc2)n1` [Imatinib], the efficacy in assay [1] is -85%. In assay [2], the AC50 cell viability stood at 16.6 µM.

For `NC(=O)C/1=C(O)/[C@]2(O)[C@@H](C[C@@H]\3CC4=C(C(=CC=C4)O)\C(=C3C2=O)O)CC1=O` [Incyclinide], in assay [1], the efficacy is -69.4%. The same compound showed an AC50 cell viability in assay [2] of 16.6 µM.

Regarding `O=C(Nc1ccncc1)C(=O)c1cn(Cc2ccc(Cl)cc2)c2ccccc12` [Indibulin], in assay [1], the efficacy was -70.9%. This compound also came in with an AC50 cell viability in assay [2] of 0.295 µM.

Turning to `COC1=C(OC)C=C2C(=C1)C(=O)N(CCC[N]3C=CN=C3)\C4=C2\C(=O)C5=CC6=C(OCO6)C=C45` [Indimitecan hydrochloride (LMP-776)], the efficacy in assay [1] is -63.4%. The same compound came in with an AC50 cell viability in assay [2] of 5.9 µM.

Consider `N[S+](=O)([O-])c1ccc([S+](=O)([O-])Nc2cccc3c(Cl)c[nH]c23)cc1` [Indisulam (E7070)], for which, in assay [1], the efficacy is -57.8%. The compound also displayed an AC50 cell viability in assay [2] of 1.86 µM.

As to `COC1=C(OC)C=C2C(=C1)C(=O)N(CCCN3CCOCC3)\C4=C2\C(=O)C5=C4C=C6OCOC6=C5` [Indotecan hydrochloride (LMP-400)], the efficacy in assay [1] was -88.1%. This compound came in with an AC50 cell viability in assay [2] of 2.09 µM.

As for `CC(C)NC[C@@H](C(=O)N1CCN(c2ncnc3c2[C@H](C)C[C@H]3O)CC1)c1ccc(Cl)cc1` [Ipatasertib], the efficacy in assay [1] is -96.8%. In assay [2], this compound came in with an AC50 cell viability of 13.2 µM.

As to `CCC1=C2C=C(OC(=O)N3CCC(CC3)N4CCCCC4)C=CC2=NC\5=C1CN6C(=O)\C7=C(/C=C56)[C@@](O)(CC)C(=O)OC7` [Irinotecan], the efficacy in assay [1] is -80%. Also, the AC50 cell viability in assay [2] was 1.18 µM.

With `Clc1ccc(C(Cn2ccnc2)OCc2c(Cl)cccc2Cl)c(Cl)c1` (stereo not drawn) [Isoconazole nitrate], the efficacy in assay [1] is -77.2%. Besides, the AC50 cell viability in assay [2] was found to be 23.5 µM.

On to `CC(C)[C@@H](N(CCCN)C(=O)C1=CC=C(C)C=C1)C/2=N/C3=CC(=CC=C3C(=O)N2CC4=CC=CC=C4)Cl` [Ispinesib], for which the efficacy in assay [1] was -94.4%. The AC50 cell viability in assay [2] worked out at 0.0295 µM.

`CC(C)(C)C1=CC(=C(NC(=O)C/2=C/NC3=C(C=CC=C3)C2=O)C=C1O)C(C)(C)C` [Ivacaftor]: the efficacy in assay [1] was -108%. In assay [2], this compound registered an AC50 cell viability of 18.6 µM.

`C/C(=C\c1csc(C)n1)[C@@H]1C[C@@H]2O[C@]2(C)CCC[C@H](C)[C@H](O)[C@@H](C)C(=O)C(C)(C)[C@@H](O)CC(=O)N1` [Ixabepilone]: the efficacy in assay [1] was -58.5%. This compound yielded an AC50 cell viability in assay [2] of 0.0833 µM.

For `CC(C)C[C@H](NC(=O)CNC(=O)c1cc(Cl)ccc1Cl)B1OC(=O)CC(CC(=O)O)(C(=O)O)O1` (stereo partly drawn) [Ixazomib citrate], in assay [1], the efficacy is -93.4%. The same compound came in with an AC50 cell viability in assay [2] of 0.148 µM.

Regarding `CC(C)C[C@H](NC(=O)CNC(=O)c1cc(Cl)ccc1Cl)B(O)O` [Ixazomib], the efficacy in assay [1] is -89.3%. The AC50 cell viability in assay [2] turned out to be 0.0833 µM.

On to `N#CC(c1ccnc(NCCc2cccnc2)n1)c1nc2ccccc2s1` (stereo not drawn) [JNK Inhibitor V], for which the efficacy in assay [1] was -92.2%. The same compound came in with an AC50 cell viability in assay [2] of 8.33 µM.

Consider `CC1=C(C)C2=C(S1)[N]3C(=NN=C3[C@H](CC(=O)OC(C)(C)C)/N=C2/C4=CC=C(Cl)C=C4)C` [JQ1], for which the efficacy in assay [1] was -81.9%. The AC50 cell viability in assay [2] stood at 0.525 µM.

In the case of `CCc1ccc(OCc2ccccc2C(=O)Nc2ccc3nc(C)cc(N)c3c2)cc1` [JTC-801], in assay [1], the efficacy is -94.1%. The AC50 cell viability in assay [2] was found to be 3.32 µM.

With `CC(C)NC(=O)COc1cccc(-c2nc(Nc3ccc4[nH]ncc4c3)c3ccccc3n2)c1` [KD-025], the efficacy in assay [1] is -66.8%. In assay [2], this compound came in with an AC50 cell viability of 8.33 µM.

Take `CC(C)CNc1ccnc(NCc2csc(-c3ccccc3)n2)n1` [KHS-101]: the efficacy in assay [1] was -129%. In addition, the AC50 cell viability in assay [2] was 11.8 µM.

As to `COc1cc2nccc(Oc3ccc(NC(=O)Nc4ccc(F)cc4F)c(F)c3)c2cc1OC` [KI-8751], the efficacy in assay [1] is -47.4%. The AC50 cell viability in assay [2] came to 2.09 µM.

For the compound `COc1ccc([S+](=O)([O-])N(CCO)c2ccccc2CN(C)C/C=C/c2ccc(Cl)cc2)cc1` [KN-93], the efficacy in assay [1] was -93.9%. The AC50 cell viability in assay [2] came out at 14.8 µM.

Turning to `O=C(/C=C\n1cnc(-c2cc(C(F)(F)F)cc(C(F)(F)F)c2)n1)N1CC(F)(F)C1` [KPT-276], the efficacy in assay [1] is -75.6%. The compound also registered an AC50 cell viability in assay [2] of 0.59 µM.

Turning to `Nc1ccc(/C=C/C(=O)NCc2cc3cc(-c4ccc(C(=O)N5CCC(F)(F)CC5)cc4)cc(-c4ccc(F)cc4)c3o2)cn1` [KPT-9274], in assay [1], the efficacy is -91.7%. In assay [2], this compound gave an AC50 cell viability of 0.59 µM.

For `NC(CO)(CO)CCc1ccc(Sc2cccc(OCc3ccccc3)c2)cc1Cl` [KRP-203], the efficacy in assay [1] is -92.6%. The same compound returned an AC50 cell viability in assay [2] of 7.42 µM.

With `O=C/1\C=C(/OC(=C1)/C2=C3SC4=C(SC3=CC=C2)C=CC=C4)N5CCOCC5` [KU-0064], the efficacy in assay [1] was -77.5%. The compound further displayed an AC50 cell viability in assay [2] of 16.6 µM.

Turning to `O=C(c1ccc(/C=C/c2n[nH]c3ccccc23)cc1)N1CCNCC1` [KW-2449], in assay [1], the efficacy is -96.6%. Besides, the AC50 cell viability in assay [2] was determined as 8.33 µM.
